Results as given in patent publication US20220117972A1, “USE OF PPAR-DELTA AGONISTS IN THE TREATMENT OF MITOCHONDRIAL MYOPATHY” (Reneo Pharmaceuticals, Inc., priority 2019, published 2022).
Entries after “also recorded” stand apart in the source; their conditions may differ.

Columns and labels:
hPPARδ = target: T1, hPPARδ (Homo sapiens, UniProt Q03181); test: PPAR receptor transactivation assay, human PPARδ; assay type: cell-based
T1 construct: expressed in transfected cells; host or cells: Jump-In GripTite HEK293
T1 sequence (Q03181 211-439 limits assumed): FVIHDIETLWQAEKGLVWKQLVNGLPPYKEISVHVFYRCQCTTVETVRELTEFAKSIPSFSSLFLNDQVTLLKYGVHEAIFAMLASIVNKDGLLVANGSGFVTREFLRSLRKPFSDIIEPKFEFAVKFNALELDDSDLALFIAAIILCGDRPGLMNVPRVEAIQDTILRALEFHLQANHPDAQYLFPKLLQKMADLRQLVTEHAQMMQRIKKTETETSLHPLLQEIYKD
Procedure: Compound 1 was tested on all three human PPAR subtypes (hPPAR): hPPARα, hPPARγ, and hPPARδ. All assays were repeated at least three times for each subtype.
The genes of interest were synthesized and cloned into an appropriate Jump-In™ retargeting vector following the User Guide of the Jump-In™ T-REx™ HEK293 Retargeting Kit (ThermoFisher Catalog No A15008). For example, the vector will be used to transfect and retarget the Jump-In™ HEK293 GripTite™ parental cell line. Stable pools will be antibiotic-selected for about 21 days and tested for target gene expression by functional assay.
Jump-In™ GripTite™ HEK293 parental cells were plated at 60-80% confluency in a T-75 flask in growth medium without antibiotics and transfected with a 1:1 ratio of expression construct and R4 integrase expression construct (20 μg DNA total) using Lipofectamine® LTX (50 μL) and PLUS™ Reagent (20 μL). Following a 48 hours incubation, cells were selected with 600 μg/mL Geneticin® and 10 μg/mL Blasticidin for ˜21 days in growth medium.
Jump-In™ GripTite™ HEK293 rPPAR Alpha, Delta or Gamma UAS-bla-Gal4 cell pools were plated in a 384-well plate format (20,000 cells per well) in OptiMeM without FBS in replicates (n=4). Cells were allowed to adhere for 8 hours before addition of Compound 1 (1 mM top concentration, 3-fold dilutions, 10-point titration). After 16 hours, the cells were loaded with LiveBLAzer®, a fluorescent BLA substrate that gives a blue/green readout of expressing/non-expressing cells, respectively. The blue/green readout was measured on a fluorescent plate reader (Tecan Safire II).

PPARδ = target: T2, PPARδ (UniProt I0FFS1); test: PPAR receptor transactivation assay, monkey PPARδ; assay type: cell-based
T2 construct: This is inferred from the cell pool name 'UAS-bla-Gal4' and from the general description in b82 and b85
T2 sequence (I0FFS1 1-441): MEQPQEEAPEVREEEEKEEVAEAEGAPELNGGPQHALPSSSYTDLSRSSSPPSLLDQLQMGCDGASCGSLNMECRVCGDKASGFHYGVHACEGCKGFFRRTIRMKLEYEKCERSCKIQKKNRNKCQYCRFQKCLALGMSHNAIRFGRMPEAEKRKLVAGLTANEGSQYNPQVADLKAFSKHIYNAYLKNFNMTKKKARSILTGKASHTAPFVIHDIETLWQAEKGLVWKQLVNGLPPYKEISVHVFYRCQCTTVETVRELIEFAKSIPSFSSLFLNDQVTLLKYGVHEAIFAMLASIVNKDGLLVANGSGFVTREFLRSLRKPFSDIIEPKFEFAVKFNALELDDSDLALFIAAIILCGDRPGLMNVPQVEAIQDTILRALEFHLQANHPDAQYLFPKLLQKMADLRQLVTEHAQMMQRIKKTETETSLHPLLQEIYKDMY

PPARγ = target: T3, PPARγ (Mus musculus, UniProt P37238); test: PPAR receptor transactivation assay, mouse PPARγ; assay type: cell-based
T3 construct: expressed in transfected cells; host or cells: Jump-In GripTite HEK293
T3 sequence (P37238 238-503 limits assumed): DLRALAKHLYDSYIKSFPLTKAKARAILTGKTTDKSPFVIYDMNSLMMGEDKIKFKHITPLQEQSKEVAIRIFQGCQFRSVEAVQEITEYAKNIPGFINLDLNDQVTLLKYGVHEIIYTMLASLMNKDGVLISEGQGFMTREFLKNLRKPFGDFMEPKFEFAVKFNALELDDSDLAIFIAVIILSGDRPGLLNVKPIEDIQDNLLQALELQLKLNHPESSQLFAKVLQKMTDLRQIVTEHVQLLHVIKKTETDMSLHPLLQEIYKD

[1] = system: human retinoid X receptor (hRXR); test: human retinoid X receptor activity; assay type: cell-based
LXRα = target: T4, LXRα (Homo sapiens, UniProt Q13133); test: nuclear receptor LXRα activity; assay type: cell-based
T4 sequence (Q13133 1-447): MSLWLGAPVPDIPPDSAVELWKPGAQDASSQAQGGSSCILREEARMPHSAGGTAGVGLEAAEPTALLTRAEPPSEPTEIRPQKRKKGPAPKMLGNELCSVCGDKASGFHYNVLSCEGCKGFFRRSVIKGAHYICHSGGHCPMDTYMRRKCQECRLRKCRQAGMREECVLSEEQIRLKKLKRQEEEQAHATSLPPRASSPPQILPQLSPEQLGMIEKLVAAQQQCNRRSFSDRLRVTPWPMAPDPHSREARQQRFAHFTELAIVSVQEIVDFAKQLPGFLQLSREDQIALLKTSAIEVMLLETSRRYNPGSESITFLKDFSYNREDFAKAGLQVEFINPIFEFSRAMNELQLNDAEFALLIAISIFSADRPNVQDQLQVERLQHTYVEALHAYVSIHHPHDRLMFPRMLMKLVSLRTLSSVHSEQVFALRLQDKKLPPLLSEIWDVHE

LXRβ = target: T5, LXRβ (Homo sapiens, UniProt P55055); test: nuclear receptor LXRβ activity; assay type: cell-based
T5 sequence (P55055 1-460): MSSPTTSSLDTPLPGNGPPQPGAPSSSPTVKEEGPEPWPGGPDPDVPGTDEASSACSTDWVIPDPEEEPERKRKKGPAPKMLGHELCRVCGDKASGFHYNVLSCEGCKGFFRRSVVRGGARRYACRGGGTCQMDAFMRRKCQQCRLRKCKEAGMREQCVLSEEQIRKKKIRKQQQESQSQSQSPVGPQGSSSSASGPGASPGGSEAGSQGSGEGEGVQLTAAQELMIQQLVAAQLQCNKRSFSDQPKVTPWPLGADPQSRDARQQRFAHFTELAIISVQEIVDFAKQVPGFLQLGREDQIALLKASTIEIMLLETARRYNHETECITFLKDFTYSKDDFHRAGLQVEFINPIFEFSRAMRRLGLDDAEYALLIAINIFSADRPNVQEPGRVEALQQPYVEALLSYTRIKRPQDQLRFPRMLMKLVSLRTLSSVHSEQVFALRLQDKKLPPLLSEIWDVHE

rat muscle cell lines = test: fatty acid oxidation in rat muscle cell line; assay type: cell-based; conditions: in vitro
[2] = system: primary mitochondrial myopathy patients; test: clinical trial for primary mitochondrial myopathy (PMM); assay type: in vivo, human
[3] = PMM patients, 100 mg once daily for 12 weeks

EC50 (hPPARδ; Human PPARδ): 31 nM | selectivity for PPARδ over PPARα and PPARγ (hPPARδ; in humans, monkey, and mouse): significantly greater selectivity | agonist type at PPARδ (hPPARδ; in some cases): full agonist | EC50 (PPARδ): 6.6 nM | EC50 (PPARγ): > 10000 nM | hRXR activity [1]: did not show any | activity on the nuclear receptor LXRα (LXRα): did not show any | activity on the nuclear receptor LXRβ (LXRβ): did not show any
Structure (SMILES): Cc1cc(OC/C=C(/c2ccc(F)cc2)c2ccc(C#CCN3CCOCC3)cc2)ccc1OCC(=O)O [Compound 1, (E)-[4-[3-(4-Fluorophenyl)-3-[4-[3-(morpholin-4-yl)propynyl]phenyl]allyloxy]-2-methyl-phenoxy]acetic acid]
fatty acid oxidation (rat muscle cell lines): dose-dependent increase | Modified Fatigue Impact Scale scores [2, 3]: trends towards increases | brief pain index (BPI) score, mean [2, 3]: decreased | distance walked during a 12-minute walk test [2, 3]: increase the distance walked; also recorded: Improvements | peak VO2 [2, 3]: trends towards increases | tolerability ([2]; PMM subjects that participated in the study): well tolerated
